Source: PMC6272861, “In Vitro Inhibition of Human UDP-Glucuronosyl-Transferase (UGT) Isoforms by Astaxanthin, β-Cryptoxanthin, Canthaxanthin, Lutein, and Zeaxanthin: Prediction of in Vivo Dietary Supplement-Drug Interactions” (Molecules, 2016)
Each block holds one molecule with its values, some of them ahead of it.

How the values were obtained:
[1] = target: T1, UGT1A3 (Homo sapiens, UniProt P35503)
T1 sequence (P35503 29-534): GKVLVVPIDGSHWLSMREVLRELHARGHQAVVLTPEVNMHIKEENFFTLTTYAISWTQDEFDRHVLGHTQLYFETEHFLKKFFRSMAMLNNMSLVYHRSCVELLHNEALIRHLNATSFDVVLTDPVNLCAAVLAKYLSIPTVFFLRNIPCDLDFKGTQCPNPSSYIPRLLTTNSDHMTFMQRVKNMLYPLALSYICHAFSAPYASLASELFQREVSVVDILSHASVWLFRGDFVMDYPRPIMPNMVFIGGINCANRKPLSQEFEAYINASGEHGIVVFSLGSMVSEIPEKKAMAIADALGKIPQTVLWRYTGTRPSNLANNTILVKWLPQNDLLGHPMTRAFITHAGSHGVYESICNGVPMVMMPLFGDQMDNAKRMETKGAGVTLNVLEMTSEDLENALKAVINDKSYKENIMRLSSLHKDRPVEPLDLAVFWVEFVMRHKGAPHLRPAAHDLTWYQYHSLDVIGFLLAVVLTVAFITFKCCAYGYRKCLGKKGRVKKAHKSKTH
Experimental: (§2) The formation activities of β-estradiol-3-glucuronide, chenodeoxycholic acid 24-acyl-β-D-glucuronide, trifluoperazine-N-glucuronide, imipramine-N-β-D-glucuronide, serotonin-O-glucuronide, propofol-O-glucuronide, and zidovudine-5′-glucuronide were determined to probe the activities of UGT1A1, UGT1A3, UGT1A4, UGT1A6, UGT1A9 and UGT2B7, respectively, in human liver microsomes.
(§3) In brief, the 90-µL incubation mixture, including pooled human liver microsomes (final concentration 0.25 mg/mL), 100 mM Tris buffer, 25 µg/mL alamethicin, 5 mM MgCl2, the UGT-selective substrates, and five xanthophylls (0–50 μM), were pre-incubated for 30 min on ice to allow formation of alamethicin pores. Reac2345tions were initiated by the addition of 10 μL of UDPGA (5 mM) to a final reaction volume of 0.1 mL and incubated at 37 °C for 60 min (except 30 min for UGT1A9) in a shaking water bath. After incubation, each reaction was stopped by adding 50 μL of ice-cold acetonitrile containing chlorpropamide (300 ng/mL) or theophylline (30 μg/mL or 300 μg/mL) as an internal standard. The mixtures were then centrifuged (13,000 g for 15 min at 4 °C) and 5-µL aliquots of the supernatants were injected into an LC-MS/MS system. […] All incubations were performed in triplicate, and mean values were used for analysis.
(§4) Chromatographic separations were performed on an Agilent Poroshell 120 EC-C18 column (50 mm × 4.6-mm i.d.; 2.7-μm particle size; Agilent Technologies) to quantify β-estradiol-3-glucuronide (UGT1A1), chenodeoxycholic acid 24-acyl-β-D-glucuronide (UGT1A3), trifluoperazine-N-glucuronide (UGT1A4), propofol-O-glucuronide (UGT1A9), zidovudine-5′-glucuronide (UGT2B7), and 4-methylumbelliferyl glucuronide (UGT2B15); an Agilent Poroshell 120 EC-C18 column (100 × 4.6-mm i.d.; 2.7-mm particle size) was used for quantification of serotonin-O-glucuronide (UGT1A6). The isocratic mobile phase consisted of distilled water (A) and acetonitrile containing 0.1% formic acid (B) at a ratio (v/v) of 10:90 for chenodeoxycholic acid 24-acyl-β-D-glucuronide, 30:70 for trifluoperazine-N-glucuronide and zidovudine-5′-glucuronide, 50:50 for propofol-O-glucuronide and 4-methylumbelliferyl glucuronide, 65:35 for β-estradiol-3-glucuronide, and 90:10 for serotonin-O-glucuronide, at a flow rate of 0.5 mL/min. The total run time was 4.0 min per sample for each metabolite, with the exception of serotonin-O-glucuronide (6.0 min). Peak areas for all of the analytes were automatically integrated using Analyst software (version 1.5.2, Applied Biosystems, Foster City, CA, USA).
(§5) The IC50 values were calculated via nonlinear least-squares regression analysis from plots of the logarithms of inhibitor concentration vs. the residual percentages of activities after inhibition, using WinNonlin (ver. 4.0; Pharsight, Mountain View, CA, USA).

[2] = target: T2, UGT1A9 (Homo sapiens, UniProt O60656); assay: Inhibition of UGT1A9 (propofol-O-glucuronidation) in human liver microsomes
T2 sequence (O60656 26-530): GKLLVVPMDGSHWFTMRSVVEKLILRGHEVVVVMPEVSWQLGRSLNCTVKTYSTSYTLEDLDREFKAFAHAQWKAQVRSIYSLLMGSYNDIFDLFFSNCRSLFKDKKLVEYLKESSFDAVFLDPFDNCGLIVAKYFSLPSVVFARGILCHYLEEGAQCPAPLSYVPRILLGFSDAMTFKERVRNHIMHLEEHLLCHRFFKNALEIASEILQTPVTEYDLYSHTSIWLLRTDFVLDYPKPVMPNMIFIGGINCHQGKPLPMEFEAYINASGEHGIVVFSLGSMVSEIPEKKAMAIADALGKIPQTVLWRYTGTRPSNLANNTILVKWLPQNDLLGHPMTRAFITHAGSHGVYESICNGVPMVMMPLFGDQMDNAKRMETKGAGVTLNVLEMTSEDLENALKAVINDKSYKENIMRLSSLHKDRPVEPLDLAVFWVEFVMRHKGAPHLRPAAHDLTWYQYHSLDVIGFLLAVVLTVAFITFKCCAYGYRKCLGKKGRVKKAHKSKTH
Experimental: as §2, §3, §4, §5

[3] = target: T3, UGT1A4 (Homo sapiens, UniProt P22310); assay: Inhibition of UGT1A4 (trifluoperazine-N-glucuronidation) in human liver microsomes; type: in vitro ADME; conditions: 4 μM trifluoperazine, mean ± SD of triplicate, read-out: IC50 towards UGT1A4
T3 construct: pooled human liver microsomes (final concentration 0.25 mg/mL); tissue Corning Life Sciences; host or cells: pooled human liver microsomes, 150 donors
T3 sequence (P22310 29-534): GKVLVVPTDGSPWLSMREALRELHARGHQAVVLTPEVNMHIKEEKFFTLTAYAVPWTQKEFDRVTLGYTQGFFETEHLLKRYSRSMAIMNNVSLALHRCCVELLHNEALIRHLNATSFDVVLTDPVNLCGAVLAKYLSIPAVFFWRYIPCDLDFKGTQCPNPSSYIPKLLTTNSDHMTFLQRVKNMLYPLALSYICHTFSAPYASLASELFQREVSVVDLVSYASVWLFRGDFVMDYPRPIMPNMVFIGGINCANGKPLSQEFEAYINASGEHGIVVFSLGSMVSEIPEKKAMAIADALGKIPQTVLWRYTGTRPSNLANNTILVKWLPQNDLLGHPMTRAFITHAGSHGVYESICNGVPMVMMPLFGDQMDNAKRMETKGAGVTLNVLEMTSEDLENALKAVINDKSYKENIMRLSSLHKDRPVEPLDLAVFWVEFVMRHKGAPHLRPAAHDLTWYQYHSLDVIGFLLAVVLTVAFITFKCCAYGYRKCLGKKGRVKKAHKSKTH
Experimental: as §2, §3, §4, §5

[4] = target: T4, UGT2B15 (Homo sapiens, UniProt P54855); assay: Inhibition of UGT2B15 (4-methylumbelliferyl glucuronidation) in recombinant human UGT2B15 supersomes; type: in vitro ADME; conditions: recombinant UGT2B15 supersomes, 250 μM 4-methylumbelliferone, mean ± SD of triplicate; read-out: IC50 towards UGT2B15
T4 construct: purchased Corning Life Sciences
T4 sequence (P54855 24-530): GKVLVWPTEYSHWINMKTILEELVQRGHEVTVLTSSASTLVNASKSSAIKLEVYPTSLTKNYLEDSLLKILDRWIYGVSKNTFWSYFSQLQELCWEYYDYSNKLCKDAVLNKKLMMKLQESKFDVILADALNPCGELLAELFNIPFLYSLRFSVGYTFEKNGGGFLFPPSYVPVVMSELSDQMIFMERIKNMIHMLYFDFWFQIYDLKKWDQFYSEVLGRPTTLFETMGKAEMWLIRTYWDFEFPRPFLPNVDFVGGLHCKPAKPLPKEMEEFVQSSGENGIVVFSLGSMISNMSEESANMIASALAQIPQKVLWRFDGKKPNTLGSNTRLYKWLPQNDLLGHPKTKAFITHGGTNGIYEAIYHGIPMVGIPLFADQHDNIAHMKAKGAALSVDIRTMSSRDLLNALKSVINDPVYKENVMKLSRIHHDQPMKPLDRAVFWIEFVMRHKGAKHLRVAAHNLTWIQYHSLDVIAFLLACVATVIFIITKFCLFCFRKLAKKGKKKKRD
Experimental: Although S-oxazepam is a typical substrate of UGT2B15 of human liver microsomes, authentic S-oxazepam and the corresponding glucuronide are not commercially […]. Thus, the inhibition of AS, βC, CA, LU, and ZE on the UGT2B15 activity was assessed using 4-methylumbelliferone as the nonspecific probe substrate for all UGTs except UGT1A4 [34] in recombinant human UGT2B15 supersomes.
The reaction was initiated by addition of 10 µL 5 mM UDPGA (to 100 µL total volume) followed by incubation for 120 min at 37 °C in a shaking water bath. Reactions were stopped by addition of 50 µL of ice-cold acetonitrile containing chlorpropamide (300 ng/mL) as an internal standard, and they were chilled and centrifuged (13,000 g, 15 min, 4 °C). An aliquot of 5 μL of supernatant was injected into an LC-MS/MS system. Additionally, identical parallel incubation samples containing a known UGT2B15 inhibitor amitriptyine (0–200 μM) was included as a positive control for UGT2B15.
(§1) For visual inspection, data were presented as Dixon plots.

[5] = target: T5, UGT1A1 (Homo sapiens, UniProt P22309); assay: Ki determination on UGT1A1 activity (β-estradiol-3-glucuronidation) in human liver microsomes; conditions: Dixon plots / nonlinear regression
T5 sequence (P22309 26-533): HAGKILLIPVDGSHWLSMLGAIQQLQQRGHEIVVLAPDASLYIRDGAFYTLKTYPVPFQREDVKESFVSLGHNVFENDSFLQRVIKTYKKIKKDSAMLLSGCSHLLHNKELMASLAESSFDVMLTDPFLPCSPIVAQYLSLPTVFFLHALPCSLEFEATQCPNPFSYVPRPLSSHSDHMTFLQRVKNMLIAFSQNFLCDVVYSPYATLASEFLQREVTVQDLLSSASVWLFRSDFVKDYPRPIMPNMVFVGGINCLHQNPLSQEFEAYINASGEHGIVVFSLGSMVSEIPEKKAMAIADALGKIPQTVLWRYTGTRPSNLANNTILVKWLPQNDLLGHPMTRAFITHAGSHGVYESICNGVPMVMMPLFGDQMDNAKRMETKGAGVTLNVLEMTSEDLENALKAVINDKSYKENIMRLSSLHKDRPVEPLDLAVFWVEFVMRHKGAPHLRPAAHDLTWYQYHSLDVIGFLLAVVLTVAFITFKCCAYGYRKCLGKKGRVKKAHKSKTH
Experimental: Based on the lowest IC50 value, the inhibitor constant (Ki) values of the βC for UGT1A1 were determined. […] All incubations were performed in triplicate, and the mean values were used for the analysis. Other procedures were similar to those of the reversible inhibition studies.
as §1

[6] = target: T6, UGT2B7 (Homo sapiens, UniProt P16662); assay: Inhibition of UGT2B7 (zidovudine-5′-glucuronidation) in human liver microsomes
T6 sequence (P16662 24-529): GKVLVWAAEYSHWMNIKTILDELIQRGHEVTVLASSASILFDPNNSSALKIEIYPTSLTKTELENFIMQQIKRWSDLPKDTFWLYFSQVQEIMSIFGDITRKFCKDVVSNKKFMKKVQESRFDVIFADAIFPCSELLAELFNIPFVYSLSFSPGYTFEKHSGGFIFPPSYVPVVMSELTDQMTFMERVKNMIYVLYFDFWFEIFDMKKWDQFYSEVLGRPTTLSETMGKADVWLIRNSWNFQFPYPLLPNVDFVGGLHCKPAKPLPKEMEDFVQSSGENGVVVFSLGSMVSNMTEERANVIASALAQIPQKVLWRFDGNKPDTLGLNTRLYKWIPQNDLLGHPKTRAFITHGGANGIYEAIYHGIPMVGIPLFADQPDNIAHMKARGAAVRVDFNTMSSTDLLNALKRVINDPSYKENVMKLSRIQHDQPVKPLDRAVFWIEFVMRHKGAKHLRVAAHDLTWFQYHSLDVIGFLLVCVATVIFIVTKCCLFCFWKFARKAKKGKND
Experimental: as §2, §3, §4, §5

IC50 [1]: 5.17 ± 0.7 µM
SMILES: COc1cc2c(c(OC)c1OC)-c1c(cc(OC)c(OC)c1OC)C[C@H](C)[C@H](C)C2 [Deoxyschizandrin, deoxyschizandrin]

IC50 [2]: 0.39 ± 0.0256 µM
SMILES: O=C(O)c1cccnc1Nc1cccc(C(F)(F)F)c1 [Niflumic acid, niflumic acid, reference compound]

SMILES: C[C@@H]1CC[C@@]2(OC1)O[C@H]1C[C@H]3[C@@H]4CC[C@H]5C[C@@H](O)CC[C@]5(C)[C@H]4CC(=O)[C@]3(C)[C@H]1[C@@H]2C [Hecogenin, hecogenin, reference compound]
IC50 [3]: 8.07 ± 2.6 µM

IC50 [4]: 69.4 ± 10.6 µM
SMILES: CN(C)CCC=C1c2ccccc2CCc2ccccc21 [Amitriptyline, amitriptyline, reference compound]

Mode of inhibition of UGT1A1 [5]: competitive inhibition
SMILES: Cc1cn(-c2cc(NC(=O)c3ccc(C)c(Nc4nccc(-c5cccnc5)n4)c3)cc(C(F)(F)F)c2)cn1 [Nilotinib, nilotinib, reference compound]

IC50 [6]: 37.8 ± 2.37 µM
SMILES: O=C1Nc2ccc(Cl)cc2[C@@](C#CC2CC2)(C(F)(F)F)O1 [Efavirenz, efavirenz, reference compound]
